{"source": "patent US20070264250A1", "about": "“Composition for Skin-Whitening and Wrinkle-Care” (priority 2004, published 2007)", "assay_type": "physicochemical", "conditions": "1 mM, pH 7", "description": "Stabilities of 2-o-α-glucopyranosyl-L-ascorbic acid and ascorbic acid in an aqueous solution were compared.\n(1) 2-o-α-glucopyranosyl-L-ascorbic acid, (2) ascorbic acid, and (3) 2-o-α-glucopyranosyl-L-ascorbic acid and 10 units of α-glucosidase were added to 50 mM potassium phosphate buffer solution (pH 7.0) so that a concentration of each component was 1 mM, to produce test groups. The test groups were stored at 37° C., sampled every day for 5 days, and quantitatively analyzed.\nThe quantitative analysis (HPLC analysis) for test materials was conducted under conditions described in the following Table 1. An amount of remaining 2-o-α-glucopyranosyl-L-ascorbic acid or ascorbic acid which was not degraded was reduced by an initial concentration, and stability was evaluated using the ratio.\nHowever, almost all vitamin C was degraded within 2 days. […] As well, it was confirmed that converted vitamin C was immediately degraded."}
{"compound": "O=C1O[C@H]([C@@H](O)CO)C(O)=C1O", "note": "[vitamin C, ascorbic acid]", "values": [{"measurement": "time within which almost all was degraded", "result": "≤ 2", "unit": "days"}]}
